In patent publication US8865697B2, “Crystalline (6R,7R)-7-{2-(5-amino-[1,2,4] thiadiazol-3-yl)-2-[(Z)-trityloxyimino]-acetylamino}-3-[(R)-1′-tert-butoxycarbonyl-2-oxo-[1,3′]bipyrrolidinyl-(3E)-ylidenemethyl]-8-oxo-5-thia-1-aza-bicyclo[4.2.0]oct-2-ene-2-carboxylic acid benzhydryl ester; its manufacture and use” (Basilea Pharmaceutica AG, priority 2008, dated 2014) one finds solubility data, which are given here for two compounds.

This data set in a line: Solubility in methylene chloride. To be noted: in methylene chloride at about 25° C. Type of data set: physicochemical. How it is done:
In methylene chloride, on the other hand, the DMSO solvate according to the present invention is readily soluble at temperatures in the range as indicated in the preceding paragraph (solubility about 70 g/l at about 25° C.). […] Therefore dissolving the DMSO solvate methylene chloride results in that the compound of formula (I) precipitates from this solution. This precipitate of the compound of formula (I) is generally again of greater purity than the DMSO solvate dissolved, and of such a particle size, that it can very fast be filtered or centrifuged off from the solvent. Furthermore, the precipitate of compound of formula (I) is generally in substantially crystalline form when precipitated from methylene chloride. More particularly, the precipitate comprises the compound of formula (I) at least partially in form of single-crystals.

On to `CC(C)(C)OC(=O)N1CC[C@@H](N2CC/C(=C\C3=C(C(=O)OC(c4ccccc4)c4ccccc4)N4C(=O)[C@@H](NC(=O)/C(=N\OC(c5ccccc5)(c5ccccc5)c5ccccc5)c5nsc(N)n5)[C@H]4SC3)C2=O)C1` [DMSO solvate], for which the solubility entry was “about 70 g/l”. For `CC(C)(C)OC(=O)N1CC[C@@H](N2CC/C(=C\C3=C(C(=O)OC(c4ccccc4)c4ccccc4)N4C(=O)[C@@H](NC(=O)/C(=N\OC(c5ccccc5)(c5ccccc5)c5ccccc5)c5nsc(N)n5)[C@H]4SC3)C2=O)C1` [compound of formula (I), (6R,7R)-7-{2-(5-Amino-[1,2,4]thiadiazol-3-yl)-2-[(Z)-trityloxyimino]-acetylamino}-3-[(R)-1′-tert-butoxycarbonyl-2-oxo-[1,3′]bipyrrolidinyl-3E-ylidenemethyl]-8-oxo-5-thia-1-aza-bicyclo[4.2.0]oct-2-ene-2-carboxylic acid benzhydryl ester], the solubility result is “about 8 g/l”.
